Measurements reported in PMC3748599 (Environmental science & technology, 2013).
Where two headings read alike, the source gives them in different places.

How the values were obtained:
[1] = system: rat liver microsomes; assay: Enantioselective analysis; format: in vitro ADME; details: for enantiomeric enrichment of the parent compound: racemic substrate; for enantiomeric fraction (EF) of metabolite, range: range over microsomal preparations
[2] = system: rat liver microsomes; details: for parent compound detected at end of incubation (% of initial amount): 30 min; for HEPOXB formed (% of the HEPTA added): substrate HEPTA
[3] = system: CYP1A; details: liver microsomes of pretreated male rats; cited from earlier work
[4] = system: CYP2B; details: liver microsomes of pretreated male rats; cited from earlier work
[5] = system: CYP3A; details: liver microsomes of pretreated male rats; cited from earlier work
[6] = cited from earlier work
[7] = microsomes from DX-pretreated rats
[8] = microsomes from PB-pretreated rats
[9] = microsomes from VH-pretreated rats
[10] = microsomes from DX- and VH-pretreated rats
[11] = formed from cis- and trans-chlordane
[12] = substrate racemic C-CHLORD, microsomes from PB-pretreated rats

ClC1=C(Cl)C2(Cl)[C@H]3C[C@H](Cl)[C@H](Cl)[C@H]3C1(Cl)C2(Cl)Cl (stereo partly drawn) [C-CHLORD, cis-Chlordane]
enantiomeric enrichment of the parent compound [1, 7]: did not reach statistical significance
enantiomeric enrichment of the parent compound [1, 8]: (-)-C-CHLORD was only modestly enriched
enantiomeric enrichment of the parent compound [1, 9]: (-)-C-CHLORD was only modestly enriched
change of parent compound levels in incubation [2, 10]: no statistically significant change
change of parent compound levels in incubation [2, 8]: clearly decreased

ClC1=C(Cl)C2(Cl)C3C(Cl)C=CC3C1(Cl)C2(Cl)Cl (stereo not drawn) [HEPTA, Heptachlor]
formation as metabolite from both chlordane isomers ([2]; microsomal incubations with T-CHLORD and C-CHLORD): not detected
change of parent compound levels in incubation [2, 10]: significant decrease
change of parent compound levels in incubation [2, 8]: significant decrease
parent compound detected at end of incubation (% of initial amount) [2, 8]: 6%

ClC1=C(Cl)[C@]2(Cl)[C@@H]3[C@@H](Cl)[C@H]4O[C@H]4[C@@H]3[C@@]1(Cl)C2(Cl)Cl (single isomer, unassigned; isomer b) [HEPOXB, heptachlor epoxide isomer B]
enantiomeric fraction (EF) of metabolite, range ([1]; formed from heptachlor): 0.44-0.54
enantiomeric enrichment of metabolite ([1]; substrate racemic HEPTA, microsomes from DX-pretreated rats): enrichment of (-)-HEPOXB
enantiomeric enrichment of metabolite ([1]; substrate racemic HEPTA, microsomes from PB-pretreated rats): slight but significant enrichment of (+)-HEPOXB
enantiomeric enrichment of metabolite ([1]; substrate racemic HEPTA, microsomes from VH-pretreated rats): enrichment of (-)-HEPOXB
HEPOXB formed (% of the HEPTA added) [2, 7]: 47%
HEPOXB formed (% of the HEPTA added) [2, 8]: 82%
HEPOXB formed (% of the HEPTA added) [2, 9]: 33%

CCC1(c2ccccc2)C(=O)NC(=O)NC1=O [PB, phenobarbital]
CYP1A activity relative to microsomes from VH-pretreated animals [3]: 4 times
CYP2B activity relative to microsomes from VH-pretreated animals [4]: 96 times
CYP3A activity relative to microsomes from VH-pretreated animals [5]: 2 times

ClC1=C(Cl)[C@]2(Cl)[C@H]3[C@H]([C@H](Cl)[C@]4(Cl)O[C@H]34)[C@@]1(Cl)C2(Cl)Cl [OXY, oxychlordane]
enantiomeric fraction (EF) of metabolite, range [1, 11]: 0.45-0.89
enantiomeric enrichment of metabolite [1, 12]: (+)-OXY was enriched
enantiomeric enrichment of metabolite ([1]; substrate racemic T-CHLORD, microsomes from DX-pretreated rats): (-)-OXY was slightly enriched
enantiomeric enrichment of metabolite ([1]; substrate racemic T-CHLORD, microsomes from PB-pretreated rats): Enrichment of (+)-OXY
enantiomeric enrichment in vivo ([6]; female rats treated for 28 days with trans-nonachlor or T-CHLORD): enrichment of (+)-OXY
enantiomeric enrichment in vivo ([6]; male rats, all time-points investigated): (-)-OXY was enriched
OXY formed (% of the total C-CHLORD added) ([2]; substrate C-CHLORD, microsomes from PB-pretreated rats): approximately 2%
OXY levels formed, PB versus DX microsomes ([2]; substrate T-CHLORD, PB- versus DX-pretreated rats): 9 times

ClC1=C(Cl)[C@]2(Cl)[C@@H]3[C@@H](Cl)[C@@H]4O[C@@H]4[C@@H]3[C@@]1(Cl)C2(Cl)Cl (single isomer, unassigned; isomer a) [HEPOXA, heptachlor epoxide isomer A]
formation as metabolite from HEPTA ([2]; all three rat liver microsomal preparations): not to HEPOXA

ClC1=C(Cl)[C@]2(Cl)[C@H]3[C@H](Cl)[C@@H](Cl)C[C@H]3[C@@]1(Cl)C2(Cl)Cl (relative stereo) [T-CHLORD, trans-chlordane]
enantiomeric enrichment of the parent compound [1, 7]: slight enrichment of (-)-T-CHLORD
enantiomeric enrichment of the parent compound [1, 8]: (-)-T-CHLORD was highly enriched
enantiomeric enrichment of the parent compound [1, 9]: No enantiomeric enrichment
enantiomeric enrichment in tissues ([6]; rats treated with T-CHLORD): (-)-T-CHLORD is enriched
parent compound detected at end of incubation (% of initial amount) [2, 7]: 80%
parent compound detected at end of incubation (% of initial amount) [2, 8]: 32%
parent compound detected at end of incubation (% of initial amount) [2, 9]: 94%

ClC1=CC2C(C1Cl)C1(Cl)C(Cl)=C(Cl)C2(Cl)C1(Cl)Cl (stereo not drawn) [DCC, 1,2-dichlorochlordene]
enantiomeric fraction (EF) of metabolite, range [1, 11]: 0.42-0.90
enantiomeric enrichment of metabolite ([1]; substrate racemic C-CHLORD, microsomes from DX-pretreated rats): clear enrichment of E1-DCC
enantiomeric enrichment of metabolite [1, 12]: enrichment of E2-DCC
enantiomeric enrichment of metabolite ([1]; substrate racemic C-CHLORD, microsomes from VH-pretreated rats): clear enrichment of E1-DCC
